This is an account of results in patent US20210189342A1, “COMPOSITIONS AND METHODS FOR MODULATING MONOCYTE AND MACROPHAGE INFLAMMATORY PHENOTYPES AND IMMUNOTHERAPY USES THEREOF” (Verseau Therapeutics, Inc., priority 2018, published 2021).

What all share (assay type): cell-based, human
For one experiment, the system named is tumor tissue slices. In words: tumor tissue slice cultures. Conditions: 10 ug/mL. From the text: A second system was used to further confirm the results of the dissociated tumor assays. Briefly, dissociated tumor assays have the advantage of being able to normalize the number of cells in every condition performed. They also have the potential downside of losing the tumor structure and non-cellular stromal components. […] Upon acquisition of fresh tumor tissue sample (less than 24 hrs), surrounding fat, fibrous, and necrotic areas were removed from the tumor sample as much as possible using scissors and scalpels. The tissue was embedded in the center of a tissue mold using 4% agarose. After solidifying, the agarose block was dislodged, and the mold was glued to a Leica VT1000 S microtome tissue holder and sectioned into 300 to 400 micron sections using the Leica VT1000 S microtome. […] At the end of the study, efficacy was evaluated by analyzing cytokine/chemokine amounts secreted into the culture supernatant measured using the Invitrogen™ Luminex™ Cytokine Human Magnetic 25-Plex Panel according to the manufacturer's instructions. […]

Experiment [1] relates to peripheral blood mononuclear cells (PBMCs). Conditions: SEB assay, 5 μg/ml, FIG. 5.
A further experiment deals with dissociated tumors. Description: dissociated tumor assay. Conditions: 10 ug/mL, 24 or 48 hrs, FIG. 8. From the text:
One system used for this purpose was a dissociated tumor assay. Dissociated tumors contain all the various cell populations present in the tumor microenvironment, including, for example, tumor cells, immune cells, and support cells. These viable single cell suspensions are useful for many applications and allow for the normalization of cell number and composition within each replicate of an experiment. For performing dissociated tumor experiments upon acquisition of fresh tumor tissue (less than 24 hrs), surrounding fat, fibrous areas, and necrotic areas were removed from a tumor sample using scissors and scalpels. The tumor was cut into small pieces of 2-4 mm^3. The Tumor Dissociation Kit enzyme mix (MACS Miltenyi Biotec) was prepared according to the manufacturer's protocol. Tumor pieces and dissociation enzymes were transferred into 5 ml Snaplock Microcentrifuge tubes and the tissue was minced using a pair of straight scissors. Tubes were placed in a 37° C. shaker at 200-250 rpm for 45 minutes to 1 hour. At the end of the incubation time, the digested tumor was filtered through […] cell strainers into 50 mL Falcon™ conical centrifuge tubes. […] At the end of the study, cytokines/chemokines in the culture supernatant were measured using the Invitrogen™ Luminex™ Cytokine Human Magnetic 25-Plex Panel according to the manufacturer's instructions. […]

On to pembrolizumab, for which the cytokine response result with tumor tissue slices (GI tumor, FIG. 9B) is given as “do not provide a response”. Moreover, the “cytokine response (IFNg, TNFα)” value in the experiment with tumor tissue slices (lung tumor, FIG. 9A) was “showed a response”. The “T cell activity (IFNg production)” value in experiment [1] (donor 2) was “no increase in T cell activity”. Besides, the “T cell-specific response as indicated by IFNg production” value in experiment [1] (donor 5) is reported as “increase in T cell-specific response”. In addition, in the experiment with dissociated tumors, the IFNg production result was “stimulating IFNg production” and the IL-10 production result is given as “induces immunosuppressive IL-10”.
